Assay results taken from publication PMC5564600 (Oncotarget, 2017).
Where two headings read alike, the source gives them in different places.

Legend:
Assay in all cases: biochemical
Format in all cases: binding
panel of 442 kinases [1] = target: T1, panel of 442 kinases (Homo sapiens, UniProt Q99683); conditions: ASK1; for remaining activity at 1 µM: read-out: % of control at 1 µM
T1 construct: purchased Ambit Biosciences (scanMAXX KINOMEscan)
T1 sequence (Q99683 1-1374): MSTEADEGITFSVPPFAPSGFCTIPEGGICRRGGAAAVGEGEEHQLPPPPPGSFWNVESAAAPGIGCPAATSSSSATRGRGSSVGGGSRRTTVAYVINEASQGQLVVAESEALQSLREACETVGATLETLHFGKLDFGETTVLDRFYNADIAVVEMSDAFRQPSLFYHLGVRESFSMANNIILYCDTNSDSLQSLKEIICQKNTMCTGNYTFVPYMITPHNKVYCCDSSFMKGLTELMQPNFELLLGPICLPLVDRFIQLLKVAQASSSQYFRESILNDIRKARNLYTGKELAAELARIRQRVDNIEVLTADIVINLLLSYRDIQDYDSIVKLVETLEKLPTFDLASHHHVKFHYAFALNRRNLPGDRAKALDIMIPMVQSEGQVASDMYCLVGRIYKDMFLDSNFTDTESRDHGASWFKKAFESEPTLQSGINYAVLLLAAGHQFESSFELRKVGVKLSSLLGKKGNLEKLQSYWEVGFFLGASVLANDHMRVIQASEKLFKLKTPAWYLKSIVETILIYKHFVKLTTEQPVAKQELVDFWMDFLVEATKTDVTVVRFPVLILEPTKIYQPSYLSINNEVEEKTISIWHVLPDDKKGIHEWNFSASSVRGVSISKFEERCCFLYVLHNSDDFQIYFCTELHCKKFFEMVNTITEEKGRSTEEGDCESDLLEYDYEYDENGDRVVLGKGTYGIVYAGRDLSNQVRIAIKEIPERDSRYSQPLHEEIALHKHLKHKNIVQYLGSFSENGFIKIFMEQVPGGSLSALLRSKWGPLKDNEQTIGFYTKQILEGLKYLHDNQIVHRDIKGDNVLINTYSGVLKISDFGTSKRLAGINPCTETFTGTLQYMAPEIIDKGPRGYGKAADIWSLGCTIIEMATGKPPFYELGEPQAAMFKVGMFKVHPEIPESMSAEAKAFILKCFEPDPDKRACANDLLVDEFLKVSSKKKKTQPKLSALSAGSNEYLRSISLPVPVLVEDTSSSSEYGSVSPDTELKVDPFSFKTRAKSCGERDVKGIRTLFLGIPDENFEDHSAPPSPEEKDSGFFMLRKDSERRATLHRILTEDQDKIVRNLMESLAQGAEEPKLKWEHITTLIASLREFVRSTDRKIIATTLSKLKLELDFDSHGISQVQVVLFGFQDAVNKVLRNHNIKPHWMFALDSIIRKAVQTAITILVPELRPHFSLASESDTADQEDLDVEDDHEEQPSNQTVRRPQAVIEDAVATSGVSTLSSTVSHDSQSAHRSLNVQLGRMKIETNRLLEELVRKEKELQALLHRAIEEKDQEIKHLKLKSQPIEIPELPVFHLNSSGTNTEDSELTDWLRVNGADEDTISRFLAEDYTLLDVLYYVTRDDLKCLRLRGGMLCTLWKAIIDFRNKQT

panel of 442 kinases [2] = target: T2, panel of 442 kinases (Homo sapiens, UniProt P36888, D835H); conditions: FLT3(D835H); for remaining activity at 1 µM: read-out: % of control at 1 µM
T2 construct: purchased Ambit Biosciences (scanMAXX KINOMEscan)
T2 sequence (P36888 27-993 D835H): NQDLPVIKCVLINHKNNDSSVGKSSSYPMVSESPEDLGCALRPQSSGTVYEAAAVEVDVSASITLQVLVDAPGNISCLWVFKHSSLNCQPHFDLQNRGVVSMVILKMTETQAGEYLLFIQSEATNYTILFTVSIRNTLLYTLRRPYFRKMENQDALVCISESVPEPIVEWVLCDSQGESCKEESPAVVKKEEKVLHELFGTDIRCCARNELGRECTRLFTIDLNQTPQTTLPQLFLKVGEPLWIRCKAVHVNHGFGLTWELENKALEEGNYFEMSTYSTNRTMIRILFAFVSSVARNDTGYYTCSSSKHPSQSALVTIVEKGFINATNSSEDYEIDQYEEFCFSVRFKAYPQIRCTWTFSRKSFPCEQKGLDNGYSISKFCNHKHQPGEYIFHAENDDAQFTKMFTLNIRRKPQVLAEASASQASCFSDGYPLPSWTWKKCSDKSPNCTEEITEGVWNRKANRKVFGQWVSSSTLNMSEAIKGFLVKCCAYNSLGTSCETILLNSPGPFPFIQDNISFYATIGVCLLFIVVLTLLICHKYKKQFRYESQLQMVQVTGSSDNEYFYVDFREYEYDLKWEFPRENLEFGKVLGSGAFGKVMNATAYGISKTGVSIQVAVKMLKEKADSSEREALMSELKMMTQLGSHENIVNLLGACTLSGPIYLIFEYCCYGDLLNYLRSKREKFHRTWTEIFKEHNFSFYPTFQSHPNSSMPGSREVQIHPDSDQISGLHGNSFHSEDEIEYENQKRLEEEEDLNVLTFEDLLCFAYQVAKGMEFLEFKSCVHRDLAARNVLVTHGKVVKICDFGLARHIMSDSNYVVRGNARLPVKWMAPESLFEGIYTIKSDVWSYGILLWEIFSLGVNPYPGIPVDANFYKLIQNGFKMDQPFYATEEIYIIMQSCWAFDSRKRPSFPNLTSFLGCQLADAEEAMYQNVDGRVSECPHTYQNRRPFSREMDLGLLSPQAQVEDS

panel of 442 kinases [3] = target: T3, panel of 442 kinases (Homo sapiens, UniProt P04626); conditions: ERBB2; for remaining activity at 1 µM: read-out: % of control at 1 µM
T3 construct: purchased Ambit Biosciences (scanMAXX KINOMEscan)

panel of 442 kinases [4] = target: T4, panel of 442 kinases (Homo sapiens, UniProt O75582)
T4 construct: purchased Ambit Biosciences (scanMAXX KINOMEscan)

[5] = 10 µM, read-out: % of control at 10 µM
[6] = kinase RPS6KA5(Kin.Dom.1-N-terminal), read-out: RPS6KA5(Kin.Dom.1-N-terminal) (% of control at 1 µM)
[7] = kinase RPS6KA5(Kin.Dom.2-C-terminal), read-out: RPS6KA5(Kin.Dom.2-C-terminal) (% of control at 1 µM)

T3 sequence (P04626 23-1255): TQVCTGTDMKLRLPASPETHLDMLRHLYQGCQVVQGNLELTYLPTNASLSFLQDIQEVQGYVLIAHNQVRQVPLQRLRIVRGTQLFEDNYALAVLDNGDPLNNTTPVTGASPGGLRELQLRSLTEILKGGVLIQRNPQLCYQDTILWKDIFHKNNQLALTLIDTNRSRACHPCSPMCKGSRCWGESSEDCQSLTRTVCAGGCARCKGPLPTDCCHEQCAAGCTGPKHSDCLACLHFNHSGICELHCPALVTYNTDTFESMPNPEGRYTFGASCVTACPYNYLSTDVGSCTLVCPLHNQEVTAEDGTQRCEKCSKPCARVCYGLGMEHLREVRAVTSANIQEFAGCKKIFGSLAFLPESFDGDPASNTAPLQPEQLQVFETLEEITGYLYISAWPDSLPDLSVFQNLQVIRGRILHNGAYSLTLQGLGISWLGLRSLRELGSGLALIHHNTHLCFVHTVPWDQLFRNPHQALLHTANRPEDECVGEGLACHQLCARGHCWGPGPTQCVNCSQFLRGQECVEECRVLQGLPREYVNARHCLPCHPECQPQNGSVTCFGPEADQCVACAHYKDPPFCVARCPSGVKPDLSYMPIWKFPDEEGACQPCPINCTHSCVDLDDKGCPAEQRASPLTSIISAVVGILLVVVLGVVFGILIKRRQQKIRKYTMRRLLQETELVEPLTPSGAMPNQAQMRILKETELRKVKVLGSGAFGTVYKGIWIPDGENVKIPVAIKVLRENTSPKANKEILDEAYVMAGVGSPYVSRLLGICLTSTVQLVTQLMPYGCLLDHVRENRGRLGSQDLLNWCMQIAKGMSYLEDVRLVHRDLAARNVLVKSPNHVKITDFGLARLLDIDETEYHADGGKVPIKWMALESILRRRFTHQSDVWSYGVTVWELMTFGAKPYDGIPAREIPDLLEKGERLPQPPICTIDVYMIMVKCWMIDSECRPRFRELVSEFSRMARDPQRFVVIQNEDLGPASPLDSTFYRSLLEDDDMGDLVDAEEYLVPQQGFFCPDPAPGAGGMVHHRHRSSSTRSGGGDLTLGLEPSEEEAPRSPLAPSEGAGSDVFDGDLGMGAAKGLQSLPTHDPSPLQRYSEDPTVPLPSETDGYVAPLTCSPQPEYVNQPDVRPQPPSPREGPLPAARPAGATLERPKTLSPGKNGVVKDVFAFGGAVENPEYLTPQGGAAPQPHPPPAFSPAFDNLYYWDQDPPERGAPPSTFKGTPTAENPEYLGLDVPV
T4 sequence (O75582 whole entry): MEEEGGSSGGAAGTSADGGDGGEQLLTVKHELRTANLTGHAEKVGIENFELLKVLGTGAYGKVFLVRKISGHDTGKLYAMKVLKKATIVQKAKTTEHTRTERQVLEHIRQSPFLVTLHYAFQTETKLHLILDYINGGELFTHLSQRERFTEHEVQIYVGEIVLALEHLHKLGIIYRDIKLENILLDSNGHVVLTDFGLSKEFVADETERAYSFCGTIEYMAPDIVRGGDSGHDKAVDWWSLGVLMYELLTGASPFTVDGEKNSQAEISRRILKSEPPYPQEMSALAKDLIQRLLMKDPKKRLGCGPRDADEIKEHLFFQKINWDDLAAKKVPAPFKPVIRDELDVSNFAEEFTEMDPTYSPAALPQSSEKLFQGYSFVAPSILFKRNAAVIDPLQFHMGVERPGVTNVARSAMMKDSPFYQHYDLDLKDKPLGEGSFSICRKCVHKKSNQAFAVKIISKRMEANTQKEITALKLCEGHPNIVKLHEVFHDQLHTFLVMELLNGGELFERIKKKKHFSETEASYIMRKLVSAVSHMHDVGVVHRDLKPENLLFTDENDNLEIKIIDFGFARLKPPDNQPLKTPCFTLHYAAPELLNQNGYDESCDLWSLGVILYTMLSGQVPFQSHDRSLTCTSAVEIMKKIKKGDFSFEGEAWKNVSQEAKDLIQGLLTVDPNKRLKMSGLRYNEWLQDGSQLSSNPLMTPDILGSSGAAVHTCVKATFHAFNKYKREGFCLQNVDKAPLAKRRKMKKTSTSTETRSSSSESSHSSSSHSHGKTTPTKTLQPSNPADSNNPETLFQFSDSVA

| Structure (SMILES) | remaining activity at 1 µM (panel of 442 kinases [1]) | remaining activity at 10 µM (panel of 442 kinases [1]; [5]) | remaining activity at 1 µM (panel of 442 kinases [2]) | remaining activity at 10 µM (panel of 442 kinases [2]; [5]) | remaining activity at 1 µM (panel of 442 kinases [3]) | remaining activity at 10 µM (panel of 442 kinases [3]; [5]) | remaining activity at 1 µM (panel of 442 kinases [4]; [6]) | remaining activity at 10 µM (panel of 442 kinases [4]; kinase RPS6KA5(Kin.Dom.1-N-terminal), read-out: RPS6KA5(Kin.Dom.1-N-terminal) (% of control at 10 µM)) | remaining activity at 1 µM (panel of 442 kinases [4]; [7]) | remaining activity at 10 µM (panel of 442 kinases [4]; kinase RPS6KA5(Kin.Dom.2-C-terminal), read-out: RPS6KA5(Kin.Dom.2-C-terminal) (% of control at 10 µM)) |
| --- | --- | --- | --- | --- | --- | --- | --- | --- | --- | --- |
| Nc1cc(C(F)(F)F)c(-c2cc(N3CCOCC3)nc(N3CCOCC3)n2)cn1 [Buparlisib] | 87% | 94% | 89% | 76% | 85% | 100% | 100% | 100% | 74% | 96% |
| Cn1c(=O)n(-c2ccc(C(C)(C)C#N)cc2)c2c3cc(-c4cnc5ccccc5c4)ccc3ncc21 [Dactolisib, 2-methyl-2-[4-(3-methyl-2-oxo-8-quinolin-3-yl-2,3-dihydroimidazo[4,5-c]quinolin-1-yl)-phenyl] propionitrile] | 100% |  | 26% |  | 100% |  | 64% |  | 100% |  |
| COc1ncc(-c2ccc3nccc(-c4ccnnc4)c3c2)cc1NS(=O)(=O)c1ccc(F)cc1F [Omipalisib] | 100% |  | 100% |  | 100% |  | 100% |  | 100% |  |
| FC(F)c1nc2ccccc2n1-c1nc(N2CCOCC2)nc(N2CCOCC2)n1 [ZSTK474, 2-(difluoromethyl)-1-[4,6-di(4-morpholinyl)-1,3,5-triazin-2-yl]-1H-benzimidazole] | 100% |  | 100% |  | 100% |  | 81% |  | 100% |  |
